Experimental data as given in patent US8450355B2, “Compounds for the treatment of inflammatory diseases” (Merck Sharp & Dohme Corp., priority 2008, dated 2013).
pIC50: −log10 of the molar value.

Tested on: TNF-α production from human whole blood
Assay: Inhibition of TNF-α production from human whole blood (hWBA)
Assay type: cell-based
Details: Table A; human whole blood diluted 1:1, LPS stimulation, 3.5 h, TNF-α by ELISA
Method: Assay for Inhibition of TNF-α Production from Human Whole Blood (hWBA)
Human whole blood was diluted 1:1 with serum free medium (RPMI, L-glutamine, Pen-Strep, HEPES) and incubated with a test compound in a final volume of 360 μL for 1 h at 37° C. Forty microliters of LPS (10 μg/mL) was then added. Supernatant was collected after 3.5 h incubation and the concentration of TNF-α was determined by ELISA (R&D Systems). The concentration of the test compound which inhibits 50% of the amount of TNF-α from the control untreated control was determined.

pIC50	SMILES
5.15	COc1c(F)cc2c(c1F)C(=O)N(C[C@@]1(c3cc4cnccc4o3)NC(=O)NC1=O)C2 [Compound 1160]
< 5.00	COc1c(F)cc2c(c1F)C(=O)N(CC1(C#Cc3ccc(C4(CN)NC(=O)NC4=O)cc3)NC(=O)NC1=O)C2 (centres unmarked) [Compound 1150]
5.72	CCN1CCN(C(=N)c2ccc3oc([C@]4(CN5Cc6ccc(OC)cc6C5=O)NC(=O)NC4=O)cc3n2)CC1 [Compound 1501]
5.15	COc1c(F)cc2c(c1F)C(=O)N(C[C@@]1(c3cc4ncccc4o3)NC(=O)NC1=O)C2 [Compound 1175]
< 5.00	COc1c(F)cc2c(c1F)C(=O)N(CC1(c3cc4cnccc4o3)NC(=O)NC1=O)C2 (centres unmarked) [Compound 1165]
< 5.00	Cc1cc2c3c(ccc2o1)CN(C[C@@]1(c2cc4ncccc4o2)NC(=O)NC1=O)C3=O [Compound 1701]
< 5.00	COCc1cc2c3c(ccc2o1)CN(C[C@@]1(c2cc4ncccc4o2)NC(=O)NC1=O)C3=O [Compound 1702]
5.51	COC(=O)[C@@](CN1Cc2ccc(OC)c(F)c2C1=O)(NC(N)=O)c1cc2nc(Cl)c(F)cc2o1 [Compound 1304]
6.30	Cc1cc2cc3c(c(F)c2o1)C(=O)N(CC1(c2cc4nc(-c5cn[nH]c5)ccc4o2)NC(=O)NC1=O)C3 (centres unmarked) [Compound 1700]
< 5.00	O=C1NC(=O)[C@](CN2Cc3ccc4oc(Cc5ccccc5)cc4c3C2=O)(c2cc3ncccc3o2)N1 [Compound 1703]
5.80	CCN1CCCN(c2ccc(O)c(CC(=O)[C@]3(CN4Cc5ccc(OC)c(F)c5C4=O)NC(=O)NC3=O)n2)CC1 [Compound 1707]
< 5.00	COc1c(F)cc2c(c1F)C(=O)N(CC1(c3cc4nc(N5CCC(N(C)C)CC5)ccc4o3)NC(=O)NC1=O)C2 (centres unmarked) [Compound 1190]
< 5.00	COc1ccc2c(c1)C(=O)N(C[C@@](N)(C(=O)O)c1cc3cnccc3o1)C2 [Compound 1120A]
6.53	COc1ccc2c(c1)C(=O)N(C[C@@]1(C(=O)Cc3nc(Nc4cn[nH]c4)ccc3O)NC(=O)NC1=O)C2 [Compound 1705]
5.74	COc1ccc2c(c1)C(=O)N(C[C@@]1(c3cc4nc(C(=N)N5CCCN(C)CC5)ccc4o3)NC(=O)NC1=O)C2 [Compound 1502]
< 5.00	COc1c(F)cc2c(c1F)C(=O)N(CC1(c3cc4ncccc4o3)NC(=O)NC1=O)C2 (centres unmarked) [Compound 1170]
< 5.00	COc1ccc2c(c1)C(=O)N(C[C@@](O)(C(=O)O)c1cc3cnccc3[nH]1)C2 [Compound 1120B]
< 5.00	O=C1NC(=O)[C@](CN2Cc3ccc4oc(C5CC5)cc4c3C2=O)(c2cc3ncccc3o2)N1 [Compound 1704]
5.84	COc1c(F)cc2c(c1F)C(=O)N(C[C@@]1(C#Cc3ccc(C(N)=O)cc3)NC(=O)NC1=O)C2 [Compound 1180]
6.19	COc1ccc2c(c1)C(=O)N(C[C@@]1(c3cc4nc(C(=N)NO)ccc4o3)NC(=O)NC1=O)C2 [Compound 1500]

Same assay, conditions: Table B; human whole blood diluted 1:1, LPS stimulation, 3.5 h, TNF-α by ELISA

pIC50	SMILES
6.36	COc1ccc2c(c1)C(=O)N(C[C@@]1(C#Cc3ccc(C(=O)NS(N)(=O)=O)cc3)NC(=O)NC1=O)C2 [Compound 2230]
5.86	COc1ccc2c(c1)CCN(C[C@@]1(c3cc4cnccc4o3)NC(=O)NC1=O)C2=O [Compound 2219]
7.04	COc1ccc2c(c1)C(=O)N(C[C@@]1(C#Cc3ccc(C(=NO)N(C)CCN(C)C)cc3)NC(=O)NC1=O)C2 [Compound 2228]
6.42	COc1ccc2c(c1)C(=O)N(C[C@@]1(c3cc4cc(/C(=N\O)N(C)CCN(C)C)ccc4o3)NC(=O)NC1=O)C2 [Compound 2206]
6.47	COc1ccc2c(c1)C(=O)N(C[C@@]1(c3cc4c5c(ccc4o3)C3(CC5)CNC(=O)N3)NC(=O)NC1=O)C2 (some centres unmarked) [Compound 2213]
7.02	CCN(CC)CCN(C)C(=NO)c1ccc(C#C[C@]2(CN3Cc4ccc(OC)cc4C3=O)NC(=O)NC2=O)cc1 [Compound 2229]
6.69	CCN(CC)C(=NO)c1ccc(C#C[C@]2(CN3Cc4ccc(OC)cc4C3=O)NC(=O)NC2=O)cc1 [Compound 2234]
6.09	COc1ccc2c(c1)C(=O)N(C[C@@]1(C#Cc3ccc(C(=NO)N(C)C)s3)NC(=O)NC1=O)C2 [Compound 2227]
5.99	COc1ccc2c(c1)C(=O)N(C[C@@]1(C#Cc3ccc(C(C(=O)O)N4CCCN(C(=O)OC(C)(C)C)CC4)cc3)NC(=O)NC1=O)C2 (some centres unmarked) [Compound 2238]
5.71	COc1ccc2c(c1)CCN(C[C@@]1(c3cc4c5c(ccc4o3)CNC5=O)NC(=O)NC1=O)C2=O [Compound 2217]
6.82	COc1ccc2c(c1)C(=O)N(C[C@@]1(C#Cc3ccc(C(=NO)N(C)C)cc3)NC(=O)NC1=O)C2 [Compound 2231]
6.00	COc1ccc2c(c1)C(=O)N(C[C@@]1(c3cc4ccc5c(c4o3)CCC53NC(=O)NC3=O)NC(=O)NC1=O)C2 (some centres unmarked) [Compound 2214]
6.55	CCN(CC)CCN(CC)/C(=N/O)c1ccc2oc([C@]3(CN4Cc5ccc(OC)cc5C4=O)NC(=O)NC3=O)cc2c1 [Compound 2208]
5.89	COc1ccc2c(c1)C(=O)N(C[C@@]1(C(=O)Cc3nc(NC4CCN(C)CC4)ccc3O)NC(=O)NC1=O)C2 [Compound 2241]
6.00	COc1ccc2c(c1)C(=O)N(C[C@@]1(c3cc4c5c(ccc4o3)CCC53NC(=O)NC3=O)NC(=O)NC1=O)C2 (some centres unmarked) [Compound 2223]
6.24	COc1ccc2c(c1)C(=O)N(C[C@@]1(c3cc4c5c(ccc4o3)C3(CCC5)NC(=O)NC3=O)NC(=O)NC1=O)C2 (some centres unmarked) [Compound 2211]
6.20	COc1ccc2c(c1)C(=O)N(C[C@@]1(c3cc4ccc5c(c4o3)CCC53CNC(=O)N3)NC(=O)NC1=O)C2 (some centres unmarked) [Compound 2215]
6.57	COc1ccc2c(c1)C(=O)N(C[C@@]1(C#Cc3ccc(NC(=S)NCCN4CCOCC4)cc3)NC(=O)NC1=O)C2 [Compound 2239]
≤ 5.00	COc1c(Cl)cc2c(c1Cl)C(=O)N(C[C@@]1(c3cc4cnccc4o3)NC(=O)NC1=O)C2 [Compound 2201]
6.51	CCN(CC)CCN(C)/C(=N/O)c1ccc2oc([C@]3(CN4Cc5ccc(OC)cc5C4=O)NC(=O)NC3=O)cc2c1 [Compound 2207]
5.93	COc1ccc2c(c1)C(=O)N(C[C@@]1(C#Cc3ccc(C(C(N)=O)N4CCCN(C(=O)OC(C)(C)C)CC4)cc3)NC(=O)NC1=O)C2 (some centres unmarked) [Compound 2237]
6.62	CCCN(C)C(=NO)c1ccc(C#C[C@]2(CN3Cc4ccc(OC)cc4C3=O)NC(=O)NC2=O)cc1 [Compound 2224]
6.84	COc1ccc2c(c1F)C(=O)N(C[C@@]1(c3cc4c5c(ccc4o3)C3(CC5)NC(=O)NC3=O)NC(=O)NC1=O)C2 (some centres unmarked) [Compound 2216]
5.45	COc1ccc2c(c1)CCN(C[C@@]1(c3cc4c5c(ccc4o3)C3(CC5)NC(=O)NC3=O)NC(=O)NC1=O)C2=O (some centres unmarked) [Compound 2203]
6.55	COc1ccc2c(c1)CCN(C[C@@]1(c3cc4nc(-c5cn[nH]c5)ccc4o3)NC(=O)NC1=O)C2=O [Compound 2218]
6.50	COc1ccc2c(c1)C(=O)N(C[C@@]1(c3cc4cc(NS(N)(=O)=O)ccc4o3)NC(=O)NC1=O)C2 [Compound 2209]
6.73	COc1ccc2c(c1)C(=O)N(C[C@@]1(c3cc4c5c(ccc4o3)C3(CC5)NC(=O)NC3=O)NC(=O)NC1=O)C2 (some centres unmarked) [Compound 2210]
6.51	COc1ccc2c(c1)C(=O)N(C[C@@]1(c3cc4nc(C(=N)N)ccc4o3)NC(=O)NC1=O)C2 [Compound 2200]

Tested on: not listed separately
Assay: Area under the curve determination of plasma levels in rats (rapid rat AUC)
Assay type: in vivo
Details: Table A, oral, 10 mg/kg, blood 0.5-6 h post-dosing, read-out: RR AUC
Method: Area Under the Curve Determinations of Plasma Levels in Rats (rrAUC)
To gain insight into the pharmacokinetic properties of the compounds of formula (I), plasma levels of the compounds in rats were determined according to the protocol described in Korfmacher, W. A.; Cox, K. A.; Ng, K. J.; Veals, J.; Hsieh, Y.; Wainhaus, S.; Broske, L.; Prelusky, D.; Nomeir, A.; White, R. E. Rapid Commun. Mass Spectrom, 2001, 15, 335, Briefly, rats, after an overnight fast, were dosed orally with the test compound at a dose of 10 mg/kg in a 5 mL/kg dose volume. Blood was collected at 0.5, 1, 2, 3, 4, and 6 h post-dosing. Mass spectrometry using high performance liquid chromatography was used to identify and measure the concentrations of the test compounds in the plasma at the various time points. The parent ion of each test compound was used to identify and quantitate the compounds in plasma.

AUC [µM·h]	SMILES
0.113	COC(=O)[C@@](CN1Cc2ccc(OC)c(F)c2C1=O)(NC(N)=O)c1cc2nc(Cl)c(F)cc2o1 [Compound 1304]

Same assay, conditions: Table B, oral, 10 mg/kg, blood 0.5-6 h post-dosing, read-out: RR AUC

AUC [µM·h]	SMILES
0.128	COc1ccc2c(c1)C(=O)N(C[C@@]1(c3cc4ccc5c(c4o3)CCC53NC(=O)NC3=O)NC(=O)NC1=O)C2 (some centres unmarked) [Compound 2214]
0.055	COc1ccc2c(c1)C(=O)N(C[C@@]1(c3cc4c5c(ccc4o3)C3(CCC5)NC(=O)NC3=O)NC(=O)NC1=O)C2 (some centres unmarked) [Compound 2211]
1.6	COc1ccc2c(c1F)C(=O)N(C[C@@]1(c3cc4c5c(ccc4o3)C3(CC5)NC(=O)NC3=O)NC(=O)NC1=O)C2 (some centres unmarked) [Compound 2216]
0.321	COc1ccc2c(c1)C(=O)N(C[C@@]1(c3cc4c5c(ccc4o3)C3(CC5)NC(=O)NC3=O)NC(=O)NC1=O)C2 (some centres unmarked) [Compound 2210]
